Read-outs that look alike come from different tables or passages of the source.
Tests used:
[1] = system: group II mGlu receptors; conditions: cited from earlier work
[2] = biological target: T1, human mGlu2 (Homo sapiens, UniProt Q14416); experiment: mGlu2 GIRK cell-based thallium flux assay; conditions: HEK-293 co-expressing human mGlu2 and GIRK; EC80 glutamate
T1 construct: expressed in transfected cells; host or cells: HEK-293
Protocol: (§1) Human embryonic kidney (HEK-293) cell lines stably co-expressing human mGlu2 and G protein-coupled inwardly rectifying potassium (GIRK) channels, or human mGlu3 and GIRK, were used for in vitro evaluation of compound activity through thallium flux assays.
(§2) The day before the assay, cells from cell lines co-expressing human mGlu2 or mGlu3 and GIRK, as described above, were plated in black-walled, clear-bottomed, amine-coated 384-well plates in 20 μL of assay medium (DMEM containing 10% FBS, 1 M HEPES, 100 mM sodium pyruvate) at a density of 15,000 cells/well and stored at 37° C. in the presence of 5% CO2. On the day of the assay, medium was removed and replaced with assay buffer (Hanks balanced salt solution, 20 mM HEPES, 4.16 mM sodium bicarbonate, pH 7.2) containing 0.328 μM FluoZin-2 AM dye. The dye was initially made up as a 2.85 mM stock in DMSO and diluted 1:1 with 10% pluronic acid before adding to the buffer. Cells were then incubated for one hour at room temperature. After dye-loading, excess extracellular dye was removed by exchanging the dye solution with assay buffer resulting in 20 μL of buffer in each well. After a ten-minute rest period, cell plates were loaded into a Hamamatsu μCell kinetic imaging plate reader to monitor fluorescence using 470 nm excitation and 540 nm emission settings.
(§3) After collection of baseline fluorescence, 20 μL of compound solution prepared as a concentration response series in assay buffer was added. The concentration series was created from a 10 mM DMSO compound stock by performing a 1:3 serial dilution in DMSO followed by a 1:167 dilution of each DMSO solution in buffer. […] Multiple reference wells containing no compound received either no glutamate (for a baseline reference), EC80 glutamate, or ECmax glutamate (for normalization to maximum response). Signal was monitored an additional 2.5 minutes after the glutamate addition. Fluorescence was measured throughout the experiment at a frequency of 1 measurement per every 2 seconds before the glutamate addition and a frequency of 1 measurement per every 1 second after the glutamate addition. Each compound concentration series occurred one time in each plate, and replicates from two or three plates were used in each experimental run. Thallium solutions were handled and disposed of according to guidelines from the Vanderbilt University Chemical Safety department.
(§4) Data were normalized using a static ratio function (F/F0) by dividing every fluorescent measurement by the initial fluorescent value for the corresponding well. The increase in signal resulting from the glutamate/thallium addition of the second add was measured by determining the slope from 3 seconds to 13 seconds after the addition. The average of all baseline slopes (no compound, no glutamate) was determined and this value was subtracted from all other slope values. The average of all ECmax slopes was determined and this value was used to normalize the baseline-corrected slopes to a percent max value (% Emax). The % Emax values for each compound series were plotted versus the log of the concentration and fit to a 4-parameter logistical equation with no fixed parameters.
(§5) Potency is reported as the IC50 resulting from the curve fit.

[3] = biological target: T2, human mGlu3 (Homo sapiens, UniProt Q14832); experiment: mGlu3 GIRK cell-based thallium flux assay; conditions: HEK-293 co-expressing human mGlu3 and GIRK; EC80 glutamate
T2 construct: expressed in transfected cells; host or cells: HEK-293
T2 sequence (Q14832 23-879): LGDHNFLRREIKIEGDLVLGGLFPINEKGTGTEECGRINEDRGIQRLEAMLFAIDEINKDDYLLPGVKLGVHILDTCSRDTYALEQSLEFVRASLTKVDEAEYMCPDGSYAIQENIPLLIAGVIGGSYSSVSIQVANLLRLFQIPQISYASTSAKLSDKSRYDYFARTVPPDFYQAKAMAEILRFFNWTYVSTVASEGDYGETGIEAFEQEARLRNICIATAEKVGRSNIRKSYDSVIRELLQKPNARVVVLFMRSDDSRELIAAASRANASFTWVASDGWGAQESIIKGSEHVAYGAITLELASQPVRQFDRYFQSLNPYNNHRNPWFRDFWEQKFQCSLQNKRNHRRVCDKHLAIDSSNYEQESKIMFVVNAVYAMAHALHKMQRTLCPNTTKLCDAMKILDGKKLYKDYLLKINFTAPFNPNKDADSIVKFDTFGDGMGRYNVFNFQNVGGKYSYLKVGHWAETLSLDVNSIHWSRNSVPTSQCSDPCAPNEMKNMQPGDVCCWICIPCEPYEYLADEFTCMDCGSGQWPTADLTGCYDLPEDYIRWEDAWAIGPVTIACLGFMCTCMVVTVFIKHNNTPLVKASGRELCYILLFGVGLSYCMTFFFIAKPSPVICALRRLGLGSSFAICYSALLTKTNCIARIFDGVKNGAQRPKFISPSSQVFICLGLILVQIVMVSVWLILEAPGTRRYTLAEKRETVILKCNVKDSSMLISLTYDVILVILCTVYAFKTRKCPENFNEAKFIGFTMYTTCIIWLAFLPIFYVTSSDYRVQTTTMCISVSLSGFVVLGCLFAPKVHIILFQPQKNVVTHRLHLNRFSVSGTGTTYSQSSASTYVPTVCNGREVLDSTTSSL
Protocol: as §1, §2, §3, §4, §5

[4] = system: Helpless (H) mice; conditions: cited from earlier work; for activity in the tail suspension test: Helpless (H) mice
[5] = system: normal animals; conditions: cited from earlier work
[6] = system: normal animals; conditions: cited from earlier work; remark: listed apart in the source
[7] = system: Aβ-induced neurodegeneration; conditions: cited from earlier work
[8] = system: central mGlu2 and mGlu3 receptors; conditions: in vivo; cited from earlier work
[9] = system: C57Bl6/J mice; conditions: cited from earlier work
[10] = system: mice; conditions: treated mice; cited from earlier work
[11] = in vivo; cited from earlier work
[12] = system: social isolation-reared mice; conditions: cited from earlier work
[13] = system: olfactory bulbectomized rats; conditions: repeated administration for 14 days; cited from earlier work
[14] = treatment for 7 days; cited from earlier work

T1 sequence (Q14416 19-872): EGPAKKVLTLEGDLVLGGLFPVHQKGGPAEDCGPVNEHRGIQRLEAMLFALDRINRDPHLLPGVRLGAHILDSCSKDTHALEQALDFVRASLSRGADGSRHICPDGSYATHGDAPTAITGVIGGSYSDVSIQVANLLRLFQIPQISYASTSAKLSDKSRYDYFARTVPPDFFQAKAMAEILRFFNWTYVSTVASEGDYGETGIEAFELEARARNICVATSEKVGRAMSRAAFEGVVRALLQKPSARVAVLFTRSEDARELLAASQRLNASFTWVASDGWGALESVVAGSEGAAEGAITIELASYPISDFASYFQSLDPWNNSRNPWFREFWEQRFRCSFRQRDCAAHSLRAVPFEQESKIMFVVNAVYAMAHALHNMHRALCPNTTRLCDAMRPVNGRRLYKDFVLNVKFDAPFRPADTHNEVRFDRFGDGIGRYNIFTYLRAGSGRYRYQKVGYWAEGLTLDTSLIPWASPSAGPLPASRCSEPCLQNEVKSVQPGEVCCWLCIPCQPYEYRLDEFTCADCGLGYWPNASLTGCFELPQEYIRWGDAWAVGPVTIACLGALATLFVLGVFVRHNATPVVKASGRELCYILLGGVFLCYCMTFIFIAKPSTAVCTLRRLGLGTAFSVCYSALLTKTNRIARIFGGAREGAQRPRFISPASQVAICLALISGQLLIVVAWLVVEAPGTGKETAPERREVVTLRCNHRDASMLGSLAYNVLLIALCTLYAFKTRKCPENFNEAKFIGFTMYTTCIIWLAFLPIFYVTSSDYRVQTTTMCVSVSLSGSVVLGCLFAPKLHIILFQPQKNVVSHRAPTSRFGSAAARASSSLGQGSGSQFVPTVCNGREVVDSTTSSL

In the case of `CCCCCCCOC(=O)[C@@]1(F)[C@@H]2C[C@@H](OCc3ccc(Cl)c(Cl)c3)[C@@](N)(C(=O)O)[C@@H]21` [BCI-838], the “duration of inhibition of group II mGlu receptors by brain concentration of active metabolite BCI-632” value ([1]; once-daily oral dosing) is listed as 22 h, the “Dutch APP transgene-associated learning and memory impairment” value ([1]; three months of treatment) is listed as “reversed” and the anxiolytic effects ([1]; three months of treatment) is listed as “provided anxiolytic effects”. The “levels of monomeric and oAβ peptides in the hippocampus and cortex” value ([1]; three months of treatment, two AD mouse models) was “decreased” and the “hippocampal progenitor cell proliferation” value ([1]; wild-type and Alzheimer's diseased mice, 3 months) was “stimulated”.
With `COc1ccc(-c2cn3c(=O)[nH]nc3cc2OCc2ccn(C)n2)c(F)c1` [Compound 7, 6-(2-fluoro-4-methoxyphenyl)-7-((1-methyl-1H-pyrazol-3-yl)methoxy)-[1,2,4]triazolo[4,3-a]pyridin-3(2H)-one] the IC50 [2] was 89 nM and the “Human mGlu3 GIRK IC50” value [3] was “Inactive”.
In the case of `COc1ccc(-c2cn3c(=O)[nH]nc3cc2OCc2cc(C)n(C)n2)c(F)c1` [Compound 10, 7-((1,5-dimethyl-1H-pyrazol-3-yl)methoxy)-6-(2-fluoro-4-methoxyphenyl)-[1,2,4]triazolo[4,3-a]pyridin-3(2H)-one], the IC50 [2] is reported as 119 nM and the “Human mGlu3 GIRK IC50” value [3] is reported as “Inactive”.
In the case of `Cc1nc(COc2cc3n[nH]c(=O)n3cc2-c2ccc(F)cc2)cs1` [Compound 3, 6-(4-fluorophenyl)-7-((2-methylthiazol-4-yl)methoxy)-[1,2,4]triazolo[4,3-a]pyridin-3(2H)-one], the IC50 [2] is reported as 104 nM and the “Human mGlu3 GIRK IC50” value [3] is reported as “Inactive”.
In the case of `N[C@](CC1c2ccccc2Oc2ccccc21)(C(=O)O)[C@H]1C[C@@H]1C(=O)O` [LY341495], the “activity in the tail suspension test” value [4] is listed as “active”, the “antidepressant effect in helpless mice” value ([4]; acute administration) is listed as “potent antidepressant effect” and the “Antidepressant-like effects in rat FST” value [5] is listed as “Antidepressant-like effects”. The “Antidepressant-like effects in mouse TST” value [6] was “Antidepressant-like effects”, the “amplification of Aβ-induced neurodegeneration by LY566332” value [7] was “prevented” and the “hypolocomotor effect of mGlu2/3 agonist (LY379268)” value [8] was “achieved the same result”. The “immobility time in the FST” value [9] was “dose-dependently reduced” and the marble-burying behavior [10] was “significantly reduce marble-burying behavior”.
In the case of `CN1C(=O)CN=C(c2ccccc2)c2cc(Cl)ccc21` [diazepam], the freezing behavior [11] is listed as “significantly decreased”.
For `COc1ccc(-c2cn3c(=O)[nH]nc3cc2OCc2nccn2C)c(F)c1` [Compound 9, 6-(2-fluoro-4-methoxyphenyl)-7-((1-methyl-1H-imidazol-2-yl)methoxy)-[1,2,4]triazolo[4,3-a]pyridin-3(2H)-one], the IC50 [2] was 216 nM and the “Human mGlu3 GIRK IC50” value [3] was “Inactive”.
In the case of `N[C@]1(C(=O)O)[C@H]2[C@@H](C[C@H]1OCc1ccc(Cl)c(Cl)c1)[C@]2(F)C(=O)O` [MGS0039], the “immobility in the FST” value [12] is listed as “reversed the increased immobility”, the freezing behavior [11] is listed as “significantly decreased” and the “Antidepressant-like effects in rat FST” value [5] is listed as “Antidepressant-like effects”. The “Antidepressant-like effects in mouse TST” value [6] was “Antidepressant-like effects”, the “hyperactivity in the open field test” value [13] was “attenuated the hyperactivity” and the “learning deficit in the passive avoidance test” value [13] was “attenuated the learning deficit”. For the same compound, the “number of escape failures” value [14] was “significantly reduced”, the marble-burying behavior [10] was “reduced marble-burying behavior in a significant and dose dependent manner” and the spontaneous locomotor activity [10] was “no significant change”.
In the case of `Cc1cc(-c2cccc(C3=Nc4cc(C)c(C(F)(F)F)cc4NC(=O)C3)c2)cc(C)n1` [RO4491533], the “activity in the tail suspension test” value [4] is given as “active”, the “hypolocomotor effect of mGlu2/3 agonist (LY379268)” value [8] is given as “reversed the hypolocomotor effect” and the “immobility time in the FST” value [9] is given as “dose-dependently reduced”.
In the case of `CNCCC(Oc1ccc(C(F)(F)F)cc1)c1ccccc1` (centres unmarked) [fluoxetine], the “antidepressant effect in helpless mice” value ([4]; chronic (21 days) treatment) is listed as “full antidepressant effect”.
In the case of `Cn1ccc(COc2cc3n[nH]c(=O)n3cc2-c2ccc(F)cc2)n1` [Compound 1, 6-(4-fluorophenyl)-7-((1-methyl-1H-pyrazol-3-yl)methoxy)-[1,2,4]triazolo[4,3-a]pyridin-3(2H)-one], the IC50 [2] is reported as 771 nM and the “Human mGlu3 GIRK IC50” value [3] is reported as “Inactive”.
For `COc1ccc(-c2cn3c(=O)[nH]nc3cc2OCc2ccn(C)n2)cc1` [Compound 11, 6-(4-methoxyphenyl)-7-((1-methyl-1H-pyrazol-3-yl)methoxy)-[1,2,4]triazolo[4,3-a]pyridin-3(2H)-one], the IC50 [2] was 85.8 nM and the “Human mGlu3 GIRK IC50” value [3] was “Inactive”.
In the case of `CCS(=O)(=O)N(Cc1cccnc1)c1cccc(-c2ccc(C#N)cc2)c1` [LY566332], the Aβ-induced neurodegeneration [7] is given as “amplified”.
In the case of `Cc1csc(COc2cc3n[nH]c(=O)n3cc2-c2ccc(F)cc2)n1` [Compound 6, 6-(4-fluorophenyl)-7-((4-methylthiazol-2-yl)methoxy)-[1,2,4]triazolo[4,3-a]pyridin-3(2H)-one], the IC50 [2] is reported as 169 nM and the “Human mGlu3 GIRK IC50” value [3] is reported as “Inactive”.
For `COc1ccc(-c2cn3c(=O)[nH]nc3cc2OCc2csc(C)n2)c(F)c1` [Compound 8, 6-(2-fluoro-4-methoxyphenyl)-7-((2-methylthiazol-4-yl)methoxy)-[1,2,4]triazolo[4,3-a]pyridin-3(2H)-one], the IC50 [2] was 54.2 nM and the “Human mGlu3 GIRK IC50” value [3] was “Inactive”.

Reference: patent US20240208983A1, “1,2,4-TRIAZOLO[4,3-A]PYRIDINE DERIVATIVES AS NEGATIVE ALLOSTERIC MODULATORS OF METABOTROPIC GLUTAMATE RECEPTOR 2” (Vanderbilt University, priority 2021, published 2024)
